From patent US20150216182A1, “COMPOSITIONS AND METHODS OF THE ATTRACTION AND REPULSION OF INSECTS” (Olfactor Laboratories, Inc., priority 2012, published 2015)
Structures can show the parent of a compound that is named as a salt. Where two headings read alike, the source gives them in different places.

Legend:
cpA neurons [1] = assay: extracellular single-sensillum electrophysiology: inhibition of CO2-responsive (cpA) neuronal activity; conditions: for Class: Table 10, single compounds, percent reduction in cpA activity compared to baseline; for Class (inhibitor class of the individual component): Inh = inhibitor
[2] = test system: bed bugs (Cimex lectularius); assay: bed bug repellency assay; format: in vivo; conditions: for % Rep (bed bug repellency): compound or combination on filter paper harborage, ten bed bugs
Description: Compounds and combinations of compounds of the present invention were assayed for their ability to repel bed bugs (Cimex lectularius) using a bed bug repellency assay. This assay takes advantage of the bed bug's natural tendency to seek harborage. Two petri dishes were obtained and the inner areas of each were sanded down (leaving the perimeter smooth.) Talc was applied on the perimeter and on the inside walls of the petri dishes with a small paint brush to prevent bed bugs from escaping. A cut off top portion of a solo bathroom cup was placed upside down in the center of one petri dish. A large plastic secondary container was gathered and a paper towel was laid down inside the bottom. The petri dish was then placed inside and ten bed bugs were placed inside the cut off portion of the solo cup. Next, two pieces of filter paper were cut down the middle to yield 4 equally sized halves. 3 pieces were placed inside a glass dish ([…]) and the remaining piece was placed in a separate dish. All 4 pieces were folded down the middle to create a “tent” or “harborage” when laid such that the folded crease faced up. 100 microliters of isopropyl alcohol was pipetted into 3 pieces of filter paper (all housed in the first glass dish.) In a separate 4 ml vial, 90 microliters of isopropyl alcohol was combined and vortexed with 10 microliters of the compound or compound combination being tested. 100 microliters of this solution [comprising a total of 100 mg of compound(s)] was pipetted onto the filter paper in the separate dish. All filter papers were then allowed to dry. Once dry, experiments were conducted first with two filter paper halves comprising only the isopropyl alcohol (control experiment) and then with the remaining filter paper halves [one with only isopropyl alcohol and one comprising the test compound(s).] Filter paper halves were placed on opposing sides of experimental petri dishes and bed bugs were allowed to move freely within the dishes for 5 minutes. Movement of bed bugs beneath each filter paper tent was recorded. […] In the Table, “Rep” refers to repellency and “Cmpd” refers to compound.

female mosquitoes [3] = assay: whole plant or invertebrate; conditions: 2 h; for mortality at 200 µg/mL: read-out: % mortality with 0.2 mg/ml; for mortality at 2000 µg/mL: read-out: % mortality with 2 mg/ml
larvae = assay: larvicidal activity assay; format: in vivo; conditions: for pest or weed control at 0.25 %: read-out: % Lethality with 0.25% compound conc.; for pest or weed control at 100 ppm: read-out: % Lethality at 100 ppm
Description: A 6-well plate (Corning Life Sciences, Tewksbury, Mass.) is used to test a compound's larvicidal activity. […] After a 24 hour exposure, the number of dead larvae are counted and recorded.
The results are presented in Table 17 as % lethality (the number of dead larvae divided by the total number of larvae).

cpA neurons [4] = assay: extracellular single-sensillum electrophysiology: activation of cpA neuronal activity; conditions: for Class: Table 6, single compounds, increase over baseline cpA neuronal activity; for Comp A Class / Comp B Class: Table 9; for Comp A Class: component A tested individually; for Comp B Class: component B tested individually; for Class B (activator class of the individual component): Table 15, single component alone, Mod Actv
female mosquitoes [5] = conditions: single compound, female mosquitoes, two hours
[6] = 0.25% compound, 24 hour exposure, dead larvae / total larvae
[7] = 100 ppm compound, 24 hour exposure, dead larvae / total larvae
[8] = Table 13, single component alone
[9] = Table 16, single component alone

| Compound | Class (cpA neurons [1]) | % Rep (bed bug repellency) [2] | mortality at 200 µg/mL (female mosquitoes [3]) | mortality at 2000 µg/mL (female mosquitoes [3]) | pest or weed control at 0.25 % (larvae; [6]) | pest or weed control at 100 ppm (larvae; [7]) | Class (cpA neurons [4]) | further results |
| --- | --- | --- | --- | --- | --- | --- | --- | --- |
| CCc1ncc(C)nc1CC [OLI0067, 2,3-diethyl-5-methylpyrazine] | Strong Inhibitor (strong inhibitors (reducing activity >60%)) | 100% | 0% | 0% | 100% | 0% |  |  |
| c1ccc2[nH]ccc2c1 [OLI0052, indole] |  | 100% | 0% | 100% |  |  | Mild Activator (mild activators yield an increase in neuronal activity that is between 20 and 40 spk/sec over baseline neuronal activity) | pest or weed control at 100 ppm (larvae; 24 h): 100%; pest or weed control at 0.25 % (larvae; 24 h): 100% |
| 2-ethyl-5(6)-methylpyrazine [OLI0032] |  |  |  |  |  |  | Mild Activator (mild activators yield an increase in neuronal activity that is between 20 and 40 spk/sec over baseline neuronal activity) | % mortality with 0.2 mg/ml (female mosquitoes [5]; 0.2 mg/ml on filter paper): 0%; % mortality with 2 mg/ml (female mosquitoes [5]; 2 mg/ml on filter paper): 0% |
| Cc1ccc(C=O)o1 [OLI0006, 5-methyl furfural] |  | 47% | 0% | 0% | 100% | 0% | Strong Activator (strong activators yield an increase in activity that is >60 spk/sec over baseline neuronal activity) |  |
| CCCCCCC(=O)OC [OLI0091, methyl heptanoate] | Mild Inhibitor (mild inhibitors (reducing activity by 20-40%)) | 20% | 0% | 0% | 72% | 0% |  | Comp A Class (cpA neurons [4]): Mild Inh (mild inhibitors (reducing activity by 20-40%)) |
| CCCCOC=O [OLI0007, butyl formate] |  | 6% | 0% | 0% |  |  | Strong Activator (strong activators yield an increase in activity that is >60 spk/sec over baseline neuronal activity) | pest or weed control at 100 ppm (larvae; 24 h): 0%; pest or weed control at 0.25 % (larvae; 24 h): 0% |
| CCc1ccc(O)cc1 [OLI0005, 4-ethylphenol] |  | 100% | 0% | 100% |  |  | Strong Activator (strong activators yield an increase in activity that is >60 spk/sec over baseline neuronal activity) | pest or weed control at 100 ppm (larvae; 24 h): 100%; pest or weed control at 0.25 % (larvae; 24 h): 100% |
| CCCCCCC/C=C/C=O [OLI0077, trans-2-decenal] | Moderate Inhibitor (moderate inhibitors (reducing activity by 40-60%)) | 72% |  |  |  |  |  | Class (inhibitor class of the individual component) (cpA neurons [1]; [8]): Mod |
| CC(=O)c1ccc(C)o1 [OLI0016, 2-acetyl-5-methyl furan] |  | 86% | 0% | 0% | 100% | 0% | Moderate Activator (Moderate activators yield an increase in neuronal activity that is between 40 and 60 spk/sec over baseline neuronal activity) | Comp A Class (cpA neurons [4]): Mod; Comp B Class (cpA neurons [4]): Mod; Class B (activator class of the individual component) (cpA neurons [4]): Mod |
| C=CCOC(=O)CCC [OLI0019, allyl butyrate] |  | 8% | 0% | 0% | 100% | 0% | Moderate Activator (Moderate activators yield an increase in neuronal activity that is between 40 and 60 spk/sec over baseline neuronal activity) | Comp B Class (cpA neurons [4]): Mod; Class B (activator class of the individual component) (cpA neurons [4]): Mod |
| CCOC(=O)C(C)O (stereo not shown) [OLI0010, ethyllactate] |  | 37% | 0% | 0% | 0% | 0% | Strong Activator (strong activators yield an increase in activity that is >60 spk/sec over baseline neuronal activity) |  |
| CCCCCC(C)=O [OLI0092, methylamylketone] | Mild Inhibitor (mild inhibitors (reducing activity by 20-40%)) | 8% | 0% | 0% | 73% | 32% |  | Comp B Class (cpA neurons [4]): Mild Inh (mild inhibitors (reducing activity by 20-40%)) |
| CC(=O)c1ccco1 [OLI0017, 2-furyl methyl ketone] |  | 60% | 0% | 0% | 100% | 50% | Moderate Activator (Moderate activators yield an increase in neuronal activity that is between 40 and 60 spk/sec over baseline neuronal activity) | Comp A Class (cpA neurons [4]): Mod; Class B (activator class of the individual component) (cpA neurons [4]): Mod |
| 2-methoxy-3(5or6)isopropylpyrazine [OLI0072] | Moderate Inhibitor (moderate inhibitors (reducing activity by 40-60%)) | 100% |  |  |  |  |  | Class (inhibitor class of the individual component) (cpA neurons [1]; [8]): Mod; Class (inhibitor class of the individual component) (cpA neurons [1]; [9]): Mod; inhibitor class of single compound (cpA neurons [1]): moderate inhibitor (40-60% reduction in neuronal activity as compared to baseline activity of the neuron); % Lethality with 0.25% compound conc. (larvae; [6]): 100% lethal; % Lethality at 100 ppm (larvae; [7]): 0% lethal |
| CCc1nccnc1OC [OLI0071, 2-ethyl-3-methoxypyrazine] | Moderate Inhibitor (moderate inhibitors (reducing activity by 40-60%)) | 29% | 0% | 0% | 100% | 0% |  | Class (inhibitor class of the individual component) (cpA neurons [1]; [8]): Mod; Class (inhibitor class of the individual component) (cpA neurons [1]; [9]): Mod; inhibitor class of single compound (cpA neurons [1]): moderate inhibitor (40-60% reduction in neuronal activity as compared to baseline activity of the neuron) |
| C=CCc1ccc(O)c(OC)c1 [OLI0102, Eugenol] |  | 100% | 0% | 100% | 100% | 25% |  | Class (inhibitor class of the individual component) (cpA neurons [1]; [8]): Mild; Class (inhibitor class of the individual component) (cpA neurons [1]; [9]): Mild; ability to repel bed bugs ([2]; 100 microliters solution on filter paper tent, 5 minutes): surprisingly strong ability to repel bed bugs |
| CC1OCCC1=O (stereo not shown) [OLI0004, 2-methyltetrahydrofuran-3-one] |  | 37% | 0% | 0% | 0% | 0% | Strong Activator (strong activators yield an increase in activity that is >60 spk/sec over baseline neuronal activity) |  |
| CCc1nccnc1CC [OLI0068, 2,3-diethylpyrazine] | Strong Inhibitor (strong inhibitors (reducing activity >60%)) | 24% | 0% | 0% | 100% | 0% |  | Class (inhibitor class of the individual component) (cpA neurons [1]; [9]): Strng |
| CCc1nccnc1C [OLI0069, 2-ethyl-3-methylpyrazine] | Strong Inhibitor (strong inhibitors (reducing activity >60%)) | 10% | 0% | 0% | 100% | 0% |  |  |
